This is an account of results in US9919001B2, “Drug carrier having L-DNA nanocage structure” (Korea Institute of Science and Technology, priority 2013, dated 2018).

The data set concerns MCF-7/ADR cells. The data set can be described thus: MTT cell viability assay (small molecule drug delivery). Type of data set: cell-based. The conditions noted are these: average of triplicate. The protocol: For DOX intercalation into the Cy5-labeled Td, DOX (1 mM) was mixed with the fluorescent DNA tetrahedron (10 μM) for 1 h and then run through NAP10 (G25-DNA grade column, GE Healthcare, USA) to remove the free DOX remaining in solution. The number of intercalated DOX molecules per DNA tetrahedron was calculated using the extinction coefficient of Cy5 at 633 nm (ϵ=230400) and that of DOX at 480 nm (ϵ=10410), respectively.
Drug-sensitive MCF-7 cells and drug-resistant MCF-7/ADR cells were used for cell viability assays. Cytotoxicity of Td was estimated using an MTT assay. Briefly, 8×10^3 mammalian cells were seeded with media (100 μL) in 96-well plates and cultured overnight to reach ˜80% confluency. The cells were then incubated in the fresh media containing Td at 37° C. for 6 h in the CO2 chamber. […] Then, thiazolyl blue tetrazolium bromide (MTT, TACS, Germany) solution (10 μL) was added to each well, followed by 4 h incubation at 37° C. Next, cells were lysed with 200 μL of dimethyl sulfoxide (DMSO, Sigma-Aldrich, USA). After overnight incubation at room temperature, the absorbance was measured at 580 nm using a microplate reader (SpectraMaxPlus™, Molecular Devices, USA).
For orientation: Formazan colour is commonly taken as a measure of viable cells.

`COc1cccc2c1C(=O)c1c(O)c3c(c(O)c1C2=O)C[C@@](O)(C(=O)CO)C[C@@H]3O[C@H]1C[C@H](N)[C@H](O)[C@H](C)O1` [Free-DOX, doxorubicin]: the “Cell viability assay (%)” value amounted to 98.9% (24 h), 93.6% (48 h) and 89.2% (72 h).
